# According to patent publication US7915281B2, “Isoxazole, dihydroisoxazole, and oxadiazole substituted imidazo ring compounds and method” (3M Innovative Properties Company, priority 2004, dated 2011):
row,melting point [°C],Compound
1,192 to 193,"Nc1nc2ccccc2c2c1nc(CF)n2Cc1cc(-c2ccc(F)cc2)no1 [Example 32, 2-(Fluoromethyl)-1-{[3-(4-fluorophenyl)isoxazol-5-yl]methyl}-1H-imidazo[4,5-c]quinolin-4-amine]"
2,163 to 164,"CCOCc1nc2c(N)nc3ccccc3c2n1CCCc1cc(C)no1 [Example 8, 2-(Ethoxymethyl)-1-[3-(3-methylisoxazol-5-yl)propyl]-1H-imidazo[4,5-c]quinolin-4-amine]"
3,235 to 237,"CCOCc1nc2c(N)nc3ccccc3c2n1CC1CC(c2ccccc2)=NO1 (stereo not shown) [Example 2, 2-(Ethoxymethyl)-1-[(3-phenyl-4,5-dihydroisoxazol-5-yl)methyl]-1H-imidazo[4,5-c]quinolin-4-amine]"
4,171 to 172,"CCOCc1nc2c(N)nc3ccccc3c2n1CCCc1cc(-c2ccccc2)no1 [Example 7, 2-(Ethoxymethyl)-1-[3-(3-phenylisoxazol-5-yl)propyl]-1H-imidazo[4,5-c]quinolin-4-amine]"
5,208 to 209,"CCCc1nc2c(N)nc3ccccc3c2n1CCc1cc(-c2ccc(F)cc2)no1 [Example 34, 1-{2-[3-(4-Fluorophenyl)isoxazol-5-yl]ethyl}-2-propyl-1H-imidazo[4,5-c]quinolin-4-amine]"
6,255 to 256,"CCc1nc2c(N)nc(C)c(C)c2n1Cc1cc(-c2ccc(F)cc2)no1 [Example 21, 2-Ethyl-1-{[3-(4-fluorophenyl)isoxazol-5-yl]methyl}-6,7-dimethyl-1H-imidazo[4,5-c]pyridin-4-amine]"
7,204 to 205,"CCOCc1nc2c(N)nc3ccccc3c2n1CCN1C(C)=NOC1(C)C [Example 10, 2-Ethoxymethyl-1-[2-(3,5,5-trimethyl-1,2,4-oxadiazol-4(5H)-yl)ethyl]-1H-imidazo[4,5-c]quinolin-4-amine]"
8,189 to 190,"CCOCc1nc2c(Cl)nc3ccccc3c2n1Cc1cc(-c2ccc(F)cc2)no1 [Example 29, 4-Chloro-2-(ethoxymethyl)-1-{[3-(4-fluorophenyl)isoxazol-5-yl]methyl}-1H-imidazo[4,5-c]quinoline]"
9,164 to 165,"Cc1nc(N)c2nc(CO)n(Cc3cc(-c4ccc(F)cc4)no3)c2c1C [Example 20, (4-Amino-1-{[3-(4-fluorophenyl)isoxazol-5-yl]methyl}-6,7-dimethyl-1H-imidazo[4,5-c]pyridin-2-yl)methanol]"
10,244 to 246,"Cc1nc(N)c2ncn(Cc3cc(-c4ccc(F)cc4)no3)c2c1C [Example 18, 1-{[3-(4-Fluorophenyl)isoxazol-5-yl]methyl}-6,7-dimethyl-1H-imidazo[4,5-c]pyridin-4-amine]"
11,227 to 229,"CCCc1nc2c(N)nc(C)c(C)c2n1Cc1cc(-c2ccc(F)cc2)no1 [Example 23, 1-{[3-(4-Fluorophenyl)isoxazol-5-yl]methyl}-6,7-dimethyl-2-propyl-1H-imidazo[4,5-c]pyridin-4-amine]"
12,246 to 247,"CCOCc1nc2c(N)nc(C)c(C)c2n1Cc1cc(-c2ccc(F)cc2)no1 [Example 19, 2-(Ethoxymethyl)-1-{[3-(4-fluorophenyl)isoxazol-5-yl]methyl}-6,7-dimethyl-1H-imidazo[4,5-c]pyridin-4-amine]"
13,178 to 180,"CCOCc1nc2c(N)nc3ccccc3c2n1Cc1cc(C)no1 [Example 4, 2-(Ethoxymethyl)-1-[(3-methylisoxazol-5-yl)methyl]-1H-imidazo[4,5-c]quinolin-4-amine]"
14,232 to 233,"CCc1nc2c(N)nc3ccccc3c2n1Cc1cc(-c2ccc(F)cc2)no1 [Example 26, 2-Ethyl-1-{[3-(4-fluorophenyl)isoxazol-5-yl]methyl}-1H-imidazo[4,5-c]quinolin-4-amine]"
15,221 to 223,"CCOCc1nc2c(N)nc3ccccc3c2n1Cc1cc(-c2ccccc2)on1 [Example 37, 2-(Ethoxymethyl)-1-[(5-phenylisoxazol-3-yl)methyl]-1H-imidazo[4,5-c]quinolin-4-amine]"
16,189 to 191,"CCOCc1nc2c(N)nc(C)c(C)c2n1Cc1cc(-c2cccnc2)no1 [Example 9, 2-(Ethoxymethyl)-6,7-dimethyl-1-[(3-pyridin-3-ylisoxazol-5-yl)methyl]-1H-imidazo[4,5-c]pyridin-4-amine]"
17,201 to 203,"CCCCc1cc(Cn2cnc3c(N)nc4ccccc4c32)no1 [Example 35, 1-[(5-Butylisoxazol-3-yl)methyl]-1H-imidazo[4,5-c]quinolin-4-amine]"
18,206 to 207,"CCCc1nc2c(N)nc3ccccc3c2n1Cc1cc(-c2cccnc2)on1 [Example 36, 2-Propyl-1-[(5-pyridin-3-ylisoxazol-3-yl)methyl]-1H-imidazo[4,5-c]quinolin-4-amine]"
19,211 to 213,"CCOCc1nc2c(N)nc3ccccc3c2n1CCN1C(C)=NOC12CCCC2 [Example 16, 2-(Ethoxymethyl)-1-[2-(3-methyl-1-oxa-2,4-diazaspiro[4,4]non-2-en-4-yl)ethyl]-1H-imidazo[4,5-c]quinolin-4-amine]"

row,melting point [°C],Compound
1,294 to 296,"Cc1nc2c(N)nc3ccccc3c2n1Cc1cc(-c2ccc(F)cc2)no1 [Example 28, 1-{[3-(4-Fluorophenyl)isoxazol-5-yl]methyl}-2-methyl-1H-imidazo[4,5-c]quinolin-4-amine]"
2,190 to 191,"CCOCc1nc2c(N)nc3cccnc3c2n1Cc1cc(-c2ccc(F)cc2)no1 [Example 12, 2-(Ethoxymethyl)-1-{[3-(4-fluorophenyl)isoxazol-5-yl]methyl}-1H-imidazo[4,5-c][1,5]naphthyridin-4-amine]"
3,247 to 248,"Nc1nc2cccnc2c2c1nc(CO)n2Cc1cc(-c2ccc(F)cc2)no1 [Example 15, (4-Amino-1-{[3-(4-fluorophenyl)isoxazol-5-yl]methyl}-1H-imidazo[4,5-c][1,5]naphthyridin-2-yl)methanol]"
4,262 to 263,"Nc1nc2ccccc2c2c1nc(CO)n2Cc1cc(-c2ccc(F)cc2)no1 [Example 31, (4-Amino-1-{[3-(4-fluorophenyl)isoxazol-5-yl]methyl}-1H-imidazo[4,5-c]quinolin-2-yl)methanol]"
5,265 to 266,"Nc1nc2cccnc2c2c1ncn2Cc1cc(-c2ccc(F)cc2)no1 [Example 11, 1-{[3-(4-Fluorophenyl)isoxazol-5-yl]methyl}-1H-imidazo[4,5-c][1,5]naphthyridin-4-amine]"
6,239 to 240,"Cc1nc2c(N)nc3cccnc3c2n1Cc1cc(-c2ccc(F)cc2)no1 [Example 13, 1-{[3-(4-Fluorophenyl)isoxazol-5-yl]methyl}-2-methyl-1H-imidazo[4,5-c][1,5]naphthyridin-4-amine]"
7,203 to 204,"CCOCc1nc2c(N)nc3ccccc3c2n1Cc1cc(-c2ccc(F)cc2)no1 [Example 30, 2-(Ethoxymethyl)-1-{[3-(4-fluorophenyl)isoxazol-5-yl]methyl}-1H-imidazo[4,5-c]quinolin-4-amine]"
8,199 to 200,"CCOCc1nc2c(N)nc3ccccc3c2n1CCCc1cc(-c2cccnc2)no1 [Example 6, 2-(Ethoxymethyl)-1-[3-(3-pyridin-3-ylisoxazol-5-yl)propyl]-1H-imidazo[4,5-c]quinolin-4-amine]"
9,219 to 220,"Fc1ccc(-c2cc(Cn3cnc4c(Cl)nc5ccccc5c43)on2)cc1 [Example 24, 4-Chloro-1-{[3-(4-fluorophenyl)isoxazol-5-yl]methyl}-1H-imidazo[4,5-c]quinoline]"
10,226 to 227,"CCCc1nc2c(N)nc3ccccc3c2n1Cc1cc(-c2ccc(F)cc2)no1 [Example 27, 1-{[3-(4-Fluorophenyl)isoxazol-5-yl]methyl}-2-propyl-1H-imidazo[4,5-c]quinolin-4-amine]"
11,238 to 239,"CCCc1nc2c(N)nc3cccnc3c2n1Cc1cc(-c2ccc(F)cc2)no1 [Example 14, 1-{[3-(4-Fluorophenyl)isoxazol-5-yl]methyl}-2-propyl-1H-imidazo[4,5-c][1,5]naphthyridin-4-amine]"
12,240 to 242,"CCOCc1nc2c(N)nc3ccccc3c2n1Cc1cc(-c2cccnc2)no1 [Example 5, 2-(Ethoxymethyl)-1-[(3-pyridin-3-ylisoxazol-5-yl)methyl]-1H-imidazo[4,5-c]quinolin-4-amine]"
13,278 to 279,"Cc1nc(N)c2nc(C)n(Cc3cc(-c4ccc(F)cc4)no3)c2c1C [Example 22, 1-{[3-(4-Fluorophenyl)isoxazol-5-yl]methyl}-2,6,7-trimethyl-1H-imidazo[4,5-c]pyridin-4-amine]"
14,227 to 228,"Nc1nc2c(c3c1ncn3Cc1cc(-c3ccc(F)cc3)no1)NCCC2 [Example 17, 1-{[3-(4-Fluorophenyl)isoxazol-5-yl]methyl}-6,7,8,9-tetrahydro-1H-imidazo[4,5-c][1,5]naphthyridin-4-amine]"
15,204 to 205,"CCOCc1nc2c(N)nc3ccccc3c2n1CC1CC(C)=NO1 (stereo not shown) [Example 1, 2-(Ethoxymethyl)-1-[(3-methyl-4,5-dihydroisoxazol-5-yl)methyl]-1H-imidazo[4,5-c]quinolin-4-amine]"
16,180 to 181,"CCOCc1nc2c(N)nc3ccccc3c2n1CCc1cc(-c2ccc(F)cc2)no1 [Example 33, 2-(Ethoxymethyl)-1-{2-[3-(4-fluorophenyl)isoxazol-5-yl]ethyl}-1H-imidazo[4,5-c]quinolin-4-amine]"
17,215 to 216,"CCOCc1nc2c(N)nc3ccccc3c2n1Cc1cc(-c2ccccc2)no1 [Example 3, 2-(Ethoxymethyl)-1-[(3-phenylisoxazol-5-yl)methyl]-1H-imidazo[4,5-c]quinolin-4-amine]"
18,259 to 260,"Nc1nc2ccccc2c2c1ncn2Cc1cc(-c2ccc(F)cc2)no1 [Example 25, 1-{[3-(4-Fluorophenyl)isoxazol-5-yl]methyl}-1H-imidazo[4,5-c]quinolin-4-amine]"
